From publication doi:10.1101/2020.05.06.079947v2 (biorxiv, 2020)

Biological target: PDEδ (Homo sapiens, UniProt O43924)
Test: SPR
Format: binding

Chain of PDEδ (O43924 whole entry): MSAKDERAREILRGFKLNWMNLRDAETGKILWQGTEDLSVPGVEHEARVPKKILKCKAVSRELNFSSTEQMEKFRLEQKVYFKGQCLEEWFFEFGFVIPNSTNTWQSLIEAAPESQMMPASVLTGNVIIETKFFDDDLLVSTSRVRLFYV

## O=C(COc1cccc2c1C(=O)N(C1CCC(=O)NC1=O)C2=O)NCCCOCCOCCOCCCNC(=O)c1cc(Oc2ccc(NC(=O)Nc3ccc(Cl)c(C(F)(F)F)c3)cc2)ccn1 (stereo not shown) [PROTAC T-S, 4-(4-(3-(4-chloro-3-(trifluoromethyl)phenyl)ureido)phenoxy)-N-(1-((2-(2,6-dioxopiperidin-3-yl)-1,3-dioxoisoindolin-4-l)oxy)-2-oxo-7,10,13-trioxa-3-azahexadecan-16-yl)picolinamide]
  Kd: 2260 nM
